Values of other authors in paper PMC7001544 (JHEP Reports, 2019).

Tests used:
[1] = test system: NTCP
[2] = test system: HBV

SMILES: Cc1c(C)c2c(c(C)c1O)CCC(C)(COc1ccc(CC3SC(=O)NC3=O)cc1)O2 (centres unmarked) [troglitazone]
- effect on NTCP oligomerization [1]: prevent NTCP oligomerization
- effect on internalization and infection of HBV [2]: interfere with internalization and infection of HBV
